According to patent EP4603105A1, “PHARMACEUTICAL COMPOSITION CONTAINING CYCLIC COMPOUND HAVING SELECTIVE KRAS INHIBITORY EFFECT AGAINST HRAS AND NRAS” (CHUGAI SEIYAKU KABUSHIKI KAISHA, priority 2022, dated 2024):
Where two headings read alike, the source gives them in different places.

Experiments:
[1] = test system: human lung cancer strain NCI-H441; assay: NCI-H441 cell proliferation inhibitory activity (CellTiter-Glo, 4 days); format: cell-based; settings: read-out: NCl-H441 IC50
Procedure, shortened: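 Readout: […] after the ATP-based reagent. Compound: serial dilutions in dimethyl sulfoxide.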

[2] = molecular target: GDP-bound NRAS wild-type protein (Homo sapiens, UniProt P01111); assay: Binding to NRAS by surface plasmon resonance (SPR), KD and KD ratio to KRAS
Procedure, shortened: (§1)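 GDP-bound biotin-Avi RAS captured at ~100–300 RU, 30°C, pH 7.4 HBS containing 10 µM GDP, 10 mM MgCl2, 1 mM DTT, 0.01% Tween 20 and 4% DMSO. KD by 1:1 fitting.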

HRAS wild-type protein = HRAS wild-type protein (Homo sapiens, UniProt P01112); assay: Binding to HRAS by surface plasmon resonance (SPR), KD and KD ratio to KRAS
Procedure, shortened: as §1

[3] = molecular target: GDP-bound KRAS wild-type protein (Homo sapiens, UniProt P01116); assay: Binding to KRAS by surface plasmon resonance (SPR), dissociation constant KD
Procedure, shortened: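 Affinity is measured by surface plasmon resonance at 30°C against captured, GDP-loaded RAS carrying a biotinylated Avi tag. Compounds are titrated by single-cycle kinetics, and KD comes from a 1:1 fit.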

[4] = ratio of KD for GDP-bound NRAS wild-type protein to KD for KRAS
[5] = ratio of KD for HRAS wild-type protein to KD for KRAS
[6] = 50% proliferation inhibitory concentration, four days
[7] = ratio of KD with respect to GDP-bound NRAS wild-type protein to KD with respect to KRAS
[8] = ratio of KD with respect to HRAS wild-type protein to KD with respect to KRAS
[9] = Single Cycle Kinetics, 1:1 binding model

Chain of GDP-bound KRAS wild-type protein (P01116 1-188 isoform P01116-2): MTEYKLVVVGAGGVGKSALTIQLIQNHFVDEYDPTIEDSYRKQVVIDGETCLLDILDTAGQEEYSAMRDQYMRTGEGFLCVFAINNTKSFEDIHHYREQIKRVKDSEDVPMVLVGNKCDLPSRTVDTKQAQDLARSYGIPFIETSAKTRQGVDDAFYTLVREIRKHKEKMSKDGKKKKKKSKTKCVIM
Chain of HRAS wild-type protein (P01112 whole entry): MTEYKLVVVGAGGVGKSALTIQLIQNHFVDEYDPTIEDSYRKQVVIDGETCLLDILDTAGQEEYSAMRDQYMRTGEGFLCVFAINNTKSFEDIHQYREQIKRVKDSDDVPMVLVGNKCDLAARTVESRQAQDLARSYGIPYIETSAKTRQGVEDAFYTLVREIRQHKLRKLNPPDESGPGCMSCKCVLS
Chain of GDP-bound NRAS wild-type protein (P01111 whole entry): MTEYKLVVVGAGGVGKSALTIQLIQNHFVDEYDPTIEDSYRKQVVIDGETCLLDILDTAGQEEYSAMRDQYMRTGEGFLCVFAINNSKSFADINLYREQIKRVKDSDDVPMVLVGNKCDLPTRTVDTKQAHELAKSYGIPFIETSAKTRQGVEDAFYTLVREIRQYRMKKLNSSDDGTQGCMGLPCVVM

SMILES	IC50 ([1]; NCI-H441 cells, 4 days) [nM]	NRAS /KRAS [2, 4]	HRAS /KRAS (HRAS wild-type protein; [5])	Kd ([3]; Single Cycle Kinetics) [nM]	Kd ([3]; 1:1 binding model) [nM]	IC50 [1, 6] [nM]	NRAS /KRAS [2, 7]	HRAS /KRAS (HRAS wild-type protein; [8])	Kd [3, 9] [nM]
CCC[C@H]1C(=O)N[C@@H]([C@@H](C)CC)C(=O)N(C)CC(=O)N(C)[C@H]2C/C=C\CCN(C2=O)[C@@H](Cc2ccc(C(F)(F)F)cc2)C(=O)N(C)CC(=O)N[C@@H](CCc2cc(F)c(C(F)(F)F)c(F)c2)C(=O)N2CC3(CC3)C[C@H]2C(=O)NC2(CCC2)C(=O)N(C)[C@@H]([C@@H](C)CC)C(=O)N(C)[C@H](C(=O)N(C)C)CC(=O)N1C [PP3404]	12.8	AA (a compound having 20 or more is denoted as AA)	A (a compound having 10 or more and less than 20 is denoted as A)	0.2					
CCC[C@H]1C(=O)N[C@@H]([C@@H](C)CC)C(=O)N(C2CC2)CC(=O)N(C)[C@H]2C/C(F)=C\CCN(C2=O)[C@@H](Cc2ccc(C)cc2)C(=O)N(C)CC(=O)N[C@@H](CCc2cc(F)c(C(F)(F)F)c(F)c2)C(=O)N2C[C@H](OCC)C[C@H]2C(=O)N(C)C2(CCC2)C(=O)N(C)[C@@H](C2CCCC2)C(=O)N(C)[C@H](C(=O)N(C)C)CC(=O)N1C [PP3527]	7.2	B (a compound having 3 or more and less than 10 is denoted as B)	B (a compound having 3 or more and less than 10 is denoted as B)	0.38					
CCOC[C@H]1C(=O)N[C@@H]([C@@H](C)CC)C(=O)N(C)CC(=O)N(C)[C@H]2C/C=C\CCN(C2=O)[C@@H](Cc2ccc(C(F)(F)F)cc2)C(=O)N(C)CC(=O)N[C@@H](CCc2ccc(C(F)(F)F)c(OC)c2)C(=O)N2C[C@@H](C)C[C@H]2C(=O)N(C)C2(CCC2)C(=O)N(C)[C@@H](C2CCCC2)C(=O)N(C)[C@H](C(=O)N(C)C)CC(=O)N1C [PP2359]	7.6	A (a compound having 10 or more and less than 20 is denoted as A)	B (a compound having 3 or more and less than 10 is denoted as B)		0.02				
CCO[C@@H]1C[C@H]2C(=O)NC3(CCC3)C(=O)N(C)[C@@H](C3CCCC3)C(=O)N(C)[C@H](C(=O)N(C)C)CC(=O)N(C)[C@@H](CC3CC3)C(=O)N[C@@H]([C@@H](C)CC)C(=O)N(C)CC(=O)N(C)[C@H]3C/C=C\CCN(C3=O)[C@@H](Cc3ccc(F)cc3)C(=O)N(C)CC(=O)N[C@@H](CCc3cc(F)c(Cl)c(F)c3)C(=O)N2C1 [PP1479]						140	A (a compound having 10 or more and less than 20 is denoted as A)	B (a compound having 3 or more and less than 10 is denoted as B)	0.49
CCO[C@@H]1C[C@H]2C(=O)NC3(CCC3)C(=O)N(C)[C@@H](C3CCCC3)C(=O)N(C)[C@H](C(=O)N3CCOCC3)CC(=O)N(C)[C@@H](CC3CC3)C(=O)N[C@@H]([C@@H](C)CC)C(=O)N(C)CC(=O)N(C)[C@H]3C/C=C\CCN(C3=O)[C@@H](Cc3ccc(C)cc3)C(=O)N(C)CC(=O)N[C@@H](CCc3cc(F)c(C(F)(F)F)c(F)c3)C(=O)N2C1 [PP1408]						37.6	A (a compound having 10 or more and less than 20 is denoted as A)	A (a compound having 10 or more and less than 20 is denoted as A)	0.22
CCO[C@@H]1C[C@H]2C(=O)NC3(CCC3)C(=O)N(C)[C@@H](C3CCCC3)C(=O)N(C)[C@H](C(=O)N(C)C)CC(=O)N(C)[C@@H](CC3CCCC3)C(=O)N[C@@H]([C@@H](C)CC)C(=O)N(C)CC(=O)N(C)[C@H]3C/C=C\CCN(C3=O)[C@@H](CC3CCC(F)(F)CC3)C(=O)N(C)CC(=O)N[C@@H](CCc3cc(F)c(C(F)(F)F)c(F)c3)C(=O)N2C1 [PP1458]						18.2	A (a compound having 10 or more and less than 20 is denoted as A)	A (a compound having 10 or more and less than 20 is denoted as A)	0.15
CCCOC[C@H]1C(=O)N[C@@H]([C@@H](C)CC)C(=O)N(C)CC(=O)N(C)[C@H]2C/C=C\CCN(C2=O)[C@@H](Cc2ccc(C)cc2)C(=O)N(C)CC(=O)N[C@@H](CCc2ccc(C(F)(F)F)c(OC)c2)C(=O)N2C[C@H](OCC)C[C@H]2C(=O)NC2(CC(C)(C)C2)C(=O)N(C)[C@@H](CC(C)(C)C)C(=O)N(C)[C@H](C(=O)N(C)C)CC(=O)N1C [PP2712]	6.3	A (a compound having 10 or more and less than 20 is denoted as A)	B (a compound having 3 or more and less than 10 is denoted as B)		0.11				
CCO[C@@H]1C[C@H]2C(=O)NC3(CC(C)(C)C3)C(=O)N(C)[C@@H](C(CC)CC)C(=O)N(C)[C@H](C(=O)N(C)C)CC(=O)N(C)[C@@H](COC)C(=O)N[C@@H]([C@@H](C)CC)C(=O)N(C3CC3)CC(=O)N(C)[C@H]3C/C=C\CCN(C3=O)[C@@H](CC3CCC(F)(F)CC3)C(=O)N(C)CC(=O)N[C@@H](CCc3cc(F)c(C(F)(F)F)c(F)c3)C(=O)N2C1 [PP2568]	23.4	A (a compound having 10 or more and less than 20 is denoted as A)	B (a compound having 3 or more and less than 10 is denoted as B)		1.2				
CCC[C@H]1C(=O)N[C@@H](C2CCCC2)C(=O)N(C)CC(=O)N(C)[C@H]2C/C=C\CCN(C2=O)[C@@H](Cc2ccc(C)cc2)C(=O)N(C)CC(=O)N[C@@H](CCc2ccc(C(F)(F)F)c(Cl)c2)C(=O)N2CC3(CC3)C[C@H]2C(=O)N(C)C2(CCC2)C(=O)N(C)[C@@H](C(CC)CC)C(=O)N(C)[C@H](C(=O)N(C)C)CC(=O)N1C [PP3324]	16.4	AA (a compound having 20 or more is denoted as AA)	B (a compound having 3 or more and less than 10 is denoted as B)	0.23					
CCC[C@H]1C(=O)N[C@@H]([C@@H](C)CC)C(=O)N(C2CC2)CC(=O)N(C)[C@H]2C/C=C\CCN(C2=O)[C@@H](Cc2ccc(C)cc2)C(=O)N(C)CC(=O)N[C@@H](CCc2ccc(C(F)(F)F)c(Cl)c2)C(=O)N2CC[C@H](OC)[C@H]2C(=O)N(C)C2(CCC2)C(=O)N(C)[C@@H](C2CCCC2)C(=O)N(C)[C@H](C(=O)N(C)C)CC(=O)N1C [PP3233]	9.3	A (a compound having 10 or more and less than 20 is denoted as A)	A (a compound having 10 or more and less than 20 is denoted as A)	0.25					
CCO[C@@H]1C[C@H]2C(=O)NC3(CCC3)C(=O)N(C)[C@@H](C3CCCC3)C(=O)N(C)[C@H](C(=O)N3CCOCC3)CC(=O)N(C)[C@@H](CC)C(=O)N[C@@H]([C@@H](C)CC)C(=O)N(C)CC(=O)N(C)[C@H]3CC[C@@H](C)CN(C3=O)[C@@H](Cc3ccc(C(F)(F)F)cc3)C(=O)N(C)CC(=O)N[C@@H](CCc3cc(F)c(C(F)(F)F)c(F)c3)C(=O)N2C1 [PP1372]						5	B (a compound having 3 or more and less than 10 is denoted as B)	B (a compound having 3 or more and less than 10 is denoted as B)	0.078
CCCOC[C@@H]1NC(=O)C[C@@H](C(=O)N(C)CCC)N(C)C(=O)[C@H](C2CCCC2)N(C)C(=O)C2(CC(C)(C)C2)NC(=O)[C@@H]2C[C@@H](OCC)CN2C(=O)[C@H](CCc2ccc(C(F)(F)F)c(Cl)c2)NC(=O)CN(C)C(=O)[C@H](Cc2ccc(C(F)(F)F)cc2)N2CC/C=C\C[C@@H](C2=O)N(C)C(=O)CN(C)C(=O)[C@H]([C@@H](C)CC)NC1=O [PP3450]	43.3	A (a compound having 10 or more and less than 20 is denoted as A)	A (a compound having 10 or more and less than 20 is denoted as A)	0.51					
